Converted amounts (≈) assume the structure as drawn.
Key:
Type in all cases: cell-based
[1] = system: vancomycin-susceptible enterococci, ATCC 29212; experiment: Minimum inhibitory concentration against VSE; conditions: vancomycin-susceptible enterococci, ATCC 29212
Source text: (§1) The chemistry described above enabled direct synthesis of eleven previously unknown analogs of 3. The minimum inhibitory concentrations (MICs) for the new analogs as antibacterial agents as determined.

[2] = system: vancomycin-resistant enterococci (VanA), MMX 486; experiment: Minimum inhibitory concentration against VRE (VanA)
Source text: as §1

[3] = system: methicillin-susceptible S. aureus, ATCC 29213; experiment: Minimum inhibitory concentration against MSSA
Source text: as §1

[4] = system: methicillin-resistant S. aureus, ATCC 43300; experiment: Minimum inhibitory concentration against MRSA
Source text: as §1

[5] = system: vancomycin-resistant enterococci (VanB), ATCC 51299; experiment: Minimum inhibitory concentration against VRE (VanB); conditions: vancomycin-resistant enterococci, ATCC 51299
Source text: as §1

[6] = MMX 486, vancomycin and teicoplanin resistant
[7] = methicillin-susceptible S. aureus, ATCC 29213
[8] = methicillin-resistant S. aureus, ATCC 43300
[9] = compared with vancomycin and teicoplanin

Compound	MIC, VSE [1]	MIC, VRE (VanA) [2, 6]	MIC, MSSA [3, 7]	MIC, MRSA [4, 8]	MIC, VRE (VanB) [5]	MIC ([1]; read-out: MIC, VSE)	MIC ([2]; Enterococcus, VRE, MMX 486, vancomycin and teicoplanin resistant, read-out: MIC, VRE (VanA))	MIC ([3]; Staphylococcus aureus, methicillin-susceptible S. aureus, ATCC 29213, read-out: MIC, MSSA)	MIC ([4]; Staphylococcus aureus, methicillin-resistant S. aureus, ATCC 43300, read-out: MIC, MRSA)	MIC ([5]; Enterococcus, read-out: MIC, VRE (VanB))	activity against VRE (VanA) strain, in words [2, 9]	potency against MSSA strain, in words [3, 9]	potency against MRSA strain, in words [4, 9]
CC(=O)N[C@H]1[C@H](O[C@@H]2c3ccc(c(Cl)c3)Oc3cc4cc(c3O[C@@H]3O[C@H](CO)[C@@H](O)[C@H](O)[C@H]3NC(=O)CCCCCCC(C)C)Oc3ccc(cc3Cl)C[C@H]3NC(=O)[C@H](N)c5ccc(O)c(c5)Oc5cc(O)cc(c5)[C@H](NC3=O)C(=O)N[C@H]4C(=O)N[C@H]3C(=O)N[C@@H]2C(=O)N[C@H](C(=O)O)c2c(Br)c(O)cc(O[C@H]4O[C@H](CO)[C@@H](O)[C@H](O)[C@@H]4O)c2-c2cc3ccc2O)O[C@H](CO)[C@@H](O)[C@@H]1O [Compound 4]	0.5 µg/mL (≈ 0.255 µM)	>64 µg/mL	0.5 µg/mL (≈ 0.255 µM)	1 µg/mL (≈ 0.511 µM)	1 µg/mL (≈ 0.511 µM)								
CC(=O)NC[C@H]1CN(c2ccc(N3CCOCC3)c(F)c2)C(=O)O1 [Linezolid, reference compound]						2 µg/mL (≈ 5.93 µM)	2 µg/mL (≈ 5.93 µM)	4 µg/mL (≈ 11.9 µM)	4 µg/mL (≈ 11.9 µM)	2 µg/mL (≈ 5.93 µM)			
CC(=O)N[C@H]1[C@H](O[C@@H]2c3ccc(c(Cl)c3)Oc3cc4cc(c3O[C@@H]3O[C@H](CO)[C@@H](O)[C@H](O)[C@H]3NC(=O)CCCCCCC(C)C)Oc3ccc(cc3Cl)C[C@H]3NC(=O)[C@H](N)c5ccc(O)c(c5)Oc5cc(O)c(Br)c(c5)[C@H](NC3=O)C(=O)N[C@H]4C(=O)N[C@H]3C(=O)N[C@@H]2C(=O)N[C@H](C(=O)O)c2cc(O)cc(O[C@H]4O[C@H](CO)[C@@H](O)[C@H](O)[C@@H]4O)c2-c2cc3ccc2O)O[C@H](CO)[C@@H](O)[C@@H]1O [Compound 7]	0.25 µg/mL (≈ 0.128 µM)	>64 µg/mL	0.5 µg/mL (≈ 0.255 µM)	1 µg/mL (≈ 0.511 µM)	0.5 µg/mL (≈ 0.255 µM)								
teicoplanin [reference compound]	0.25 µg/mL	>64 µg/mL	0.5 µg/mL	0.5 µg/mL	0.25 µg/mL								
CC(=O)N[C@H]1[C@H](O[C@@H]2c3ccc(c(Cl)c3)Oc3cc4cc(c3O[C@@H]3O[C@H](CO)[C@@H](O)[C@H](O)[C@H]3NC(=O)CCCCCCC(C)C)Oc3ccc(cc3Cl)C[C@H]3NC(=O)[C@H](N)c5ccc(O)c(c5)Oc5cc(O)cc(c5)[C@H](NC3=O)C(=O)N[C@H]4C(=O)N[C@H]3C(=O)N[C@@H]2C(=O)N[C@H](C(=O)O)c2cc(O)cc(O[C@H]4O[C@H](CO)[C@@H](O)[C@H](O)[C@@H]4O)c2-c2cc3ccc2O)O[C@H](CO)[C@@H](O)[C@@H]1O [Teicoplanin A2-2, reference compound]	0.25 µg/mL (≈ 0.133 µM)	>64 µg/mL	0.5 µg/mL (≈ 0.266 µM)	0.5 µg/mL (≈ 0.266 µM)	0.25 µg/mL (≈ 0.133 µM)								
CC(=O)N[C@H]1[C@H](O[C@@H]2c3ccc(c(Cl)c3)Oc3cc4cc(c3O[C@@H]3O[C@H](CO)[C@@H](O)[C@H](O)[C@H]3NC(=O)CCCCCCC(C)C)Oc3ccc(cc3-c3ccc(-c5ccccc5)cc3)C[C@H]3NC(=O)[C@H](N)c5ccc(O)c(c5)Oc5cc(O)cc(c5)[C@H](NC3=O)C(=O)N[C@H]4C(=O)N[C@H]3C(=O)N[C@@H]2C(=O)N[C@H](C(=O)O)c2c(Br)c(O)cc(O[C@H]4O[C@H](CO)[C@@H](O)[C@H](O)[C@@H]4O)c2-c2cc3ccc2O)O[C@H](CO)[C@@H](O)[C@@H]1O [Compound 17]	1 µg/mL (≈ 0.482 µM)	32 µg/mL (≈ 15.4 µM)	4 µg/mL (≈ 1.93 µM)	2 µg/mL (≈ 0.963 µM)	0.5 µg/mL (≈ 0.241 µM)								
CC(=O)N[C@H]1[C@H](O[C@@H]2c3ccc(c(Cl)c3)Oc3cc4cc(c3O[C@@H]3O[C@H](CO)[C@@H](O)[C@H](O)[C@H]3NC(=O)CCCCCCC(C)C)Oc3ccc(cc3-c3ccc(-c5ccccc5)cc3)C[C@H]3NC(=O)[C@H](N)c5ccc(O)c(c5)Oc5cc(O)cc(c5)[C@H](NC3=O)C(=O)N[C@H]4C(=O)N[C@H]3C(=O)N[C@@H]2C(=O)N[C@H](C(=O)O)c2cc(O)cc(O[C@H]4O[C@H](CO)[C@@H](O)[C@H](O)[C@@H]4O)c2-c2cc3ccc2O)O[C@H](CO)[C@@H](O)[C@@H]1O [Compound 19]	0.5 µg/mL (≈ 0.25 µM)	8 µg/mL (≈ 4.01 µM)	8 µg/mL (≈ 4.01 µM)	4 µg/mL (≈ 2 µM)	0.25 µg/mL (≈ 0.125 µM)						significant activity	loss of potency	loss of potency
